Results taken from patent US7557116B2, “Substance which exhibits antiviral and antibacterial activity and is based on derivatives of 2,8-dithioxo-1H-pyrano[2,3d 6,5-d′]dipyrimidyne and 10-aza-analogue thereof” (priority 2003, dated 2009).
Where two headings read alike, the source gives them in different places. Marks after values point to notes of the source that are not given here.

Legend:
Format in all cases: cell-based
Herpes virus of type I = experiment: Protection of Vero cells from Herpes virus of type I; conditions: for Number of cells: number of cells in 100 fields
[1] = test system: Human Immunodeficiency Virus Type 1; experiment: Anti-HIV activity: protection of MT4 T-lymphoblastoid cells (IFA)
Procedure: Activity against the Human immunodeficiency Virus (HIV) was also determined and, more specifically, the compounds antiviral effectiveness in protecting the T-lymphoblastoid cells MT4 from being infected by the virus-containing liquid of HTHIV27 cultures. The cells infected by the virus were analyzed according to the following methods: (1) An indirect immunofluorescence (IFA) with a polyclonal anti-serum was received from an HIV Infected human (the antibody titer in the IFA was 1:1000000) and, (2) A competitive IFA was utilized with monoclonal antibodies (MonAb) to p24 HIV and a polyclonal substrate. A solution of 1:540 was used in the tests. Azidothymidin (AZT) was used as the control.
The results documented in the table shown in TABLE 6 evidence that the compounds tested inhibit the reproduction of the Human Immunodeficiency Virus Type 1.

Influenza virus A = test system: Influenza virus A
Influenza virus B = test system: Influenza virus B
[2] = test system: Chlamydia trachomatis D323; experiment: Protection of cell culture from Chlamydia trachomatis (immunofluorescence, cytoplasmatic inclusions)
Description: The antiviral activity of the claimed compounds were also all tested against the Chlemydia trachomatis. The effects of the claimed compounds on the Chlamydia trachomatis are charted in TABLE 4. A relative strain of Chlamydia trachomatis D323 was used to test the claimed compounds. The strain, derived from a patient with Chlamydia urethritis, comprised a morphology and a physiological activity characteristic of and representative of that type. An infection dose of Chlamydia having a concentration of 1/10^6 cells/ml was introduced into a cell culture. Immunofluorescence (MicroTrack Chlamydia trachomatis Direct Specimen Test) was conducted to determine the significance of the chlamydial cytoplasmatic inclusions (CPI). A CylaMonoScreen was conducted to obtain the chlamydia antigens. The monolayer state and the number of cells with CPI were compared to the control to determine the effects the claimed compounds have on the chlamydia. The number of unchanged cells in 100 visual fields were counted utilizing a special net on a microscopic eyepiece.

[3] = Influenza virus A, 48 hours at 33-34 C, ineffective when IN less than 1.0
[4] = Influenza virus B, 72 hours at 33-34 C, ineffective when IN less than 1.0

Compound	percentage of protection of cells from virus (Herpes virus of type I; compound 10 mg/l)	percentage of protection of cells from virus (Herpes virus of type I; compound 50 mg/l) [%]	percentage of protection of cells from virus (Herpes virus of type I; compound 100 mg/l) [%]	Number of cells (Herpes virus of type I; compound 10 mg/l)	Number of cells (Herpes virus of type I; compound 50 mg/l)	Number of cells (Herpes virus of type I; compound 100 mg/l)	Level of inhibition of virus reproduction ([1]; 5 mg/l) [%]	Level of inhibition of virus reproduction ([1]; 50 mg/l) [%]	Level of inhibition of virus reproduction ([1]; 100 mg/l) [%]	Index of neutralization (Influenza virus A; [3])	Index of neutralization (Influenza virus B; [4])	Percentage of cells' defense from C. trachomatis ([2]; compound 30 mg/l) [%]	Percentage of cells' defense from C. trachomatis ([2]; compound 100 mg/l) [%]	Index of neutralization (Influenza virus A)	Index of neutralization (Influenza virus B)
4-chlorine-6-hydroxi-5-aryl-5,9-dihydro-1H-pyrano[2,3d: 6,5-d′]dipyrimidine-2-8-dition [Iib]	70%	90	100	8400	10800	12000									
Nc1nc2c(ncn2COCCO)c(=O)[nH]1 [Acyclovir, reference compound]	(80%)****			9600***											
Nc1nc(=S)[nH]c2c1C(c1ccc([N+](=O)[O-])cc1)c1c(O)nc(=S)[nH]c1O2 (stereo not shown) [III, 4-amino-6-hydroxi-5-(4-nitrophenyl)-5,9-dihydro-1H-pyrano[2,3-d: 6,5-d′]dipyrimidine-2,8-dition]	70%	80	100	8400	9600	12000	70	90	100	0.5	1.0	70	100		
Nc1nc(=S)[nH]c2c1C(c1ccc([N+](=O)[O-])cc1)c1c(Cl)nc(=S)[nH]c1O2 (stereo not shown) [IV, 4-chlorine-6-amino-5-(4-dinytrophenyl)-5,9-dihydro-1H-pyrano[2,3-d: 6,5-d′]dipyrimidine-2,8-dition]	50%	70	80	6000	8400	9600				2.0	1.5	50	80		
CN(C)c1nc(=S)[nH]c2c1C(c1ccc([N+](=O)[O-])cc1)c1c(O)nc(=S)[nH]c1O2 (stereo not shown) [IX, 4-dimethylamine-6-hydroxi-5-(4-nitrophenyl)-5,9-dihydro-1H-pyrano[2,3-d: 6,5-d′]dipyrimidine-2,8-dition]	50%	70	80	6000	8400	9600						50	80	2.0	1.5
Oc1nc(=S)[nH]c2c1C(c1ccccc1)c1c(Cl)nc(=S)[nH]c1O2 (stereo not shown) [Ia, 4-chlorine-6-hydroxi-5-aryl-5,9-dihydro-1H-pyrano[2,3d: 6,5-d′]dipyrimidine-2,8-dition]	60%	80	90	7200	9600	10800									
O=[N+]([O-])c1ccc(C2c3c(Cl)nc(=S)[nH]c3Oc3[nH]c(=S)nc(Cl)c32)cc1 [Iia, 4,6-dichlorine-5-(4-nitrophenyl)-5,9-dihydro-1H-pyrano[2,3-d: 6,5-d′]dipyrimidine-2,8-dition]										1.5	1.5	70	90		
Nc1nc(=S)[nH]c2c1C(c1ccc([N+](=O)[O-])cc1)c1c(N)nc(=S)[nH]c1O2 [V, 4,6-diamino-5-(4-nytrophenyl)-5,9-dihydro-1H-pyrano[2,3-d: 6,5-d′]dipyrimidine-2,8-dition]	60%	80	90	7200	9600	10800	90	100	100	1.0	1.5	50	80		
Nc1nc(=S)[nH]c2c1C(c1ccc([N+](=O)[O-])cc1)c1c(N)nc(=S)[nH]c1N2 [VI, 4,5-diamino-10-(4-nytrophenyl)-9,10-dihydro-1H,8H-1,3,6,8,9-pentaazaantrecen-2,7dition]	70%	90	100	8400	10800	12000				20	1.5	50	80		
CNc1nc(=S)[nH]c2c1C(c1ccc([N+](=O)[O-])cc1)c1c(O)nc(=S)[nH]c1O2 (stereo not shown) [VIII, 4-methylamino-6-hydroxi-5-(4-nitrophenyl)-5,9-dihydro-1H-pyrano[2,3d: 6,5-d′]dipyrimidine-2,8-dition]										2.0	1.5	70	90		
O=[N+]([O-])c1ccc(C2c3c(O)nc(=S)[nH]c3Oc3[nH]c(=S)nc(Sc4nc(O)cc(O)n4)c32)cc1 (stereo not shown) [X, 4-(4,6-dihydroxipirimidine-2sulfanil)-6-hydroxi-5-(4-nytrophenyl)-5,9-dihydro-1H-pyrano [2,3-d: 6,5-d′]dipyrimidine-2,8-dition]	60%	80	90	7200	9600	10800				1.5	1.0	60	100		
O=[N+]([O-])c1ccc(C2c3cnc(=S)[nH]c3Oc3[nH]c(=S)nc(O)c32)cc1 (stereo not shown) [XI, 6-hydroxi-5-4-(4-nitrophenyl)-5,9-dihydro-1H-pyrano[2,3-d: 6,5-d′]dipyrimidine-2,8-dition]	50%	70	80	6000	8400	9600				1.5	1.5	50	90		
O=[N+]([O-])c1ccc(C2c3c(O)nc(=S)[nH]c3Oc3[nH]c(=S)nc(O)c32)cc1 [XII]	10%	30	50	1200	3600	6000						40	60		
